Reference: patent publication US20170316147A1, “METHODS AND SYSTEMS FOR IDENTIFYING LIGAND-PROTEIN BINDING SITES” (King Abdullah University of Science and Technology, priority 2014, published 2017)
Entries after “also recorded” stand apart in the source; their conditions may differ. No end group written: not given here.

Legend:
Bcl-2 [1] = target: T1, Bcl-2 (Homo sapiens, UniProt P10415, A37T/A38E/A42E/A43T/DEL46-86/G36R/G41E/P39A/P44E/P88R/P90T/S87E/V35N/V89E); test: Differential static light scattering (aggregation temperature) of Bcl-2; type: binding
T1 construct: made in house
Experimental: We also tested direct binding of CoA to recombinant Bcl-2 (see supporting information file PredTargets). Bcl-2, the founding member of the Bcl-2 family of regulator proteins that regulate cell death, is an important anti-apoptotic protein and is classified as an oncogene. Using differential static light scattering (DSLS) we observed that the aggregation temperature Tagg for 0.5 mg/ml apo-Bcl-2 was ˜57° C. […] The predicted CoA binding pocket by iDTP was adjacent to the Bax-BH binding site and without significant overlap (FIG. 5(b)). The presence of CoA was therefore not expected to displace bound Bax-BH3. […] Thus, our in vitro binding experiments strongly supported our computational binding predictions.
DSLS measured by the Stargazer system (Harbinger Biotechnology and Engineering Corporation, Markham, Canada) was used to assess the thermal stability of Bcl-2 in the absence or presence of CoA and control ligands. DSLS measures the specific aggregation temperature, Tagg at which a protein aggregates as a result of heat denaturing. Thus, DSLS provides the thermal stability of proteins, which is expected to vary in presence of ligands. Bcl-2 at 0.5 mg/mL was overlaid with mineral oil in a clear bottom 384-well black plate (Corning) were heated from 20 to 85° C. at 1° C./min and the light scattering was detected by a CCD camera every 0.5° C. in the absence or presence of varying concentrations of CoA, yielding the difference in aggregation temperature at a particular CoA concentration from apo Bc1-2 ΔTagg. Data were normalized and Kd values were calculated by plotting ΔTagg against the CoA concentration. Resulting data were fitted using a binding saturation single site model (GraphPad).
Differential static light scattering (DSLS). DSLS measured by the Stargazer system (Harbinger Biotechnology and Engineering Corporation, Markham, Canada) was used to assess the thermal stability of Bcl-2 in the presence or absence of CoA and to control ligands. DSLS measures the specific aggregation temperature, Tagg, at which a protein aggregates as a result of heat denaturing. Thus, DSLS provides proteins with thermal stability, which is expected to vary in the presence of ligands. Bcl-2 at 0.5 mg/mL was overlaid with mineral oil in a clear bottom 384-well black plate (Corning), and heated from 20 to 85° C. at 1° C./min; light scattering was detected by a CCD camera every 0.5° C. in the presence or absence of varying concentrations of CoA, yielding the difference in aggregation temperature at a particular CoA concentration from apo Bcl-2 ΔTagg. Data were normalized and Kd values were calculated by plotting ΔTagg against the CoA concentration. Resulting data were fitted using a binding-saturation single-site model (GraphPad).
Target sequence in this assay (P10415 with tags, fused parts or gaps with the stated changes): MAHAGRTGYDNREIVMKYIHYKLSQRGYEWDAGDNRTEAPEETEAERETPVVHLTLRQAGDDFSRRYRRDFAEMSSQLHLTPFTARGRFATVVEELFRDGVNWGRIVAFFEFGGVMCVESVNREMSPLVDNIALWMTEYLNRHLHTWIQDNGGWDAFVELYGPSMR

hPPARγ-LBD [2] = target: T2, hPPARγ-LBD (Homo sapiens, UniProt P37231); test: Differential scanning fluorimetry (thermal shift) on hPPARγ-LBD; type: binding; design: human PPARγ (amino acids Glu196-Tyr477); made in house; conditions: for Tm of hPPARγ-LBD: 5 μM hPPARg
T2 sequence (P37231 196-477 isoform P37231-2): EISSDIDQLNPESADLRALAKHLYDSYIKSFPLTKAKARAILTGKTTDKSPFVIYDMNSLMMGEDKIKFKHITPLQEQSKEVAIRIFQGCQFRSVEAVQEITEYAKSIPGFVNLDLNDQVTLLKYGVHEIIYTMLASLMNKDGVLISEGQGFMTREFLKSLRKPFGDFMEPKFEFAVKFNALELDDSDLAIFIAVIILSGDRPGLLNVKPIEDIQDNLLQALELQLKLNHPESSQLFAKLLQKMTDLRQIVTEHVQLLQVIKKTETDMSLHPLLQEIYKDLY
Text: PPARγ is a nuclear hormone receptor regulating numerous biological functions including adipogenesis and cell differentiation. Its dysregulation is involved in the onset of diabetes and obesity. The interaction of the ligand binding domain (LBD) of human PPARγ (hPPARγ-LBD) with CoA is one of our most promising predictions, because this interaction achieved a high iDTP score and statistically significant co-citation index (SI Table 3). The pocket predicted by iDTP to bind CoA overlaps with the known ligand binding site of this receptor.
(§1) This method measures the protein unfolding based on fluorescence detection of the denatured form of the protein [59]. […] The plates were sealed with an optical sealing tape (Bio-Rad) and heated in an Mx3005P Q-PCR system (Stratagene) from 25 to 95° C. at 1° C. intervals. Fluorescence changes in the wells were monitored with a photomultiplier tube. The wavelengths for excitation and emission were 545 nm and 568 nm, respectively. The melting temperatures, Tm, were obtained by fitting the fluorescence data with a Boltzmann model using the GraphPad Prism software.
as §1, with “Differential scanning fluorimetry (DSF or Thermofluor). This” for “This”, “measures” for “measures the”, “(Pantoliano et al., 2001).” for “[59].”, “25° C.” for “25”, “using” for “using the”

Bcl-2 [3] = target: T1, Bcl-2; test: Fluorescence anisotropy competition: CoA against Bax-BH3 bound to Bcl-2; type: binding; conditions: 20 nM Bax-BH3, 400 nM Bcl-2, CoA up to 4.7 mM; listed as CoA
Text: Fluorescence anisotropy measurements.
Target sequence in this assay (P10415 with tags, fused parts or gaps with the stated changes, one chain of several): as the sequence (P10415 with tags, fused parts or gaps with the stated changes) above

Bcl-2 [4] = target: T1, Bcl-2; test: Intrinsic tryptophan fluorescence quenching binding assay
Experimental: Bcl-2 tryptophans were excited at 280 nM and the emission intensity was measured at 320 nM. 10 μM Bcl-2 was incubated with various dilutions of CoA for 10 min before measurement. The fluorescence emitted was monitored using a PheraStar fluorescence plate reader in 96-well plates. Change in tryptophan fluorescence occurs due to conformational change in the protein, when it is bound to the ligand and the difference in the fluorescence intensity was recorded and analyzed. Data were normalized, and Kd values were calculated by fitting to a Binding-Saturation single site model with GraphPad.
Intrinsic tryptophan fluorescence quenching binding assay. Bcl-2 tryptophans were excited at 280 nM and the emission intensity was measured at 320 nM. 10 μM Bcl-2 was incubated with various dilutions of CoA for 10 min before measurement. Emitted fluorescence was monitored using a PheraStar fluorescence plate reader in 96-well plates. Change in tryptophan fluorescence occurs due to conformational changes in the protein when it is bound to the ligand; differences in the fluorescence intensity were recorded and analyzed. Data were normalized and Kd values were calculated by fitting to a Binding-Saturation single-site model with GraphPad.
Target sequence in this assay (P10415 with tags, fused parts or gaps with the stated changes): as the sequence (P10415 with tags, fused parts or gaps with the stated changes) above

hPPARγ-LBD [5] = target: T2, hPPARγ-LBD; test: Fluorescence anisotropy titrations of fluorescein-labelled coactivator/corepressor peptides with hPPARγ-LBD in presence of ligand
Text: Next, we used fluorescence anisotropy (FA) to characterize the interaction between hPPARγ-LBD and its natural partner proteins upon CoA binding. We measured the dissociation constant (Kd) between hPPARγ-LBD and fluorescein-labeled peptides derived from a coactivator protein (PGC1) and two corepressor proteins (NCoR and SMRT). […] If an increasing molar excess of the ligand has an increasing influence on the Kd of the fluorescently labeled coactivator/corepressor, then we can infer ligand binding, because the ligand disturbs binding to coactivators or corepressors.
Binding affinities of the fluorescent peptides for hPPARγ LBD were measured in the presence or absence of ligands using a Safire2 microplate reader (TECAN). For the fluorescence-labeled peptides, excitation wavelength was set at 470 nm and emission measured at 530 nm. The reported data are the average of independent experiments and error bars correspond to standard deviations. The buffer solution for assays was 20 mM Tris-HCl pH 7.5, 150 mM NaCl, 1 mM EDTA, 5 mM dithiothreitol, and 10% (v/v) glycerol. The measurements were initiated at 40 μM of the protein, and then the sample was diluted successively by a factor of 2 with the buffer until the lowest protein concentration reached 9.7 nM. Fluorescent peptides were added to the protein samples at 4 nM, allowing establishment of the titration curve. Ligands, when added, were at final concentration of 80 μM.
Binding affinities of the fluorescent peptides for hPPARγ LBD were measured in the presence or absence of ligands using a Safire2 microplate reader (TECAN). Fluorescent-labeled peptides were measured using an excitation wavelength of 470 nm; emission was measured at 530 nm. Data are the average of independent experiments and error bars correspond to standard deviations. The buffer solution for assays consisted of 20 mM Tris-HCl pH 7.5, 150 mM NaCl, 1 mM EDTA, 5 mM dithiothreitol, and 10% (v/v) glycerol. Measurements began at 40 μM of the protein, followed by successive two-fold sample dilutions with buffer, until reaching the lowest protein concentration (9.7 nM). Fluorescent peptides were added to the protein samples at 4 nM to allow the establishment of the titration curve. Added ligands were at a final concentration of 80 μM.

[6] = target: T3, chimeric human Bcl-2 (with the internal loop 51-91 removed and residues 35-50 replaced by residues 33-48 of … (human; mouse, UniProt P10415 1-34; Q64373 33-48; P10415 92-207); test: fluorescence anisotropy (FA), same experiment as FIG. 5(a), rounded
T3 construct: also called recombinant Bcl-2; Bc1-2
T3 sequence (P10415 other isoform, or with tags, fused parts or gaps mutant limits assumed): as the sequence (P10415 with tags, fused parts or gaps with the stated changes) above

[7] = target: T3, chimeric human Bcl-2 (with the internal …); test: DSLS, aggregation temperature of 0.5 mg/mL Bcl-2 with 400 nM peptide (apo Bcl-2 56.85 ± 0.14)
[8] = target: T3, chimeric human Bcl-2 (with the internal …); test: fluorescence anisotropy of labeled Bax-BH3 against Bcl-2 concentration, single binding site model
[9] = target: T3, chimeric human Bcl-2 (with the internal …); test: differential static light scattering (DSLS), aggregation temperature of 0.5 mg/ml Bcl-2
[10] = target: T3, chimeric human Bcl-2 (with the internal …); test: DSLS, aggregation temperature of 0.5 mg/mL Bcl-2 with 1 uM peptide (apo Bcl-2 56.85 ± 0.14); negative control

## QDASTKKLSECLRRIGDELDSNMELQRMIAD [Bax-BH3 peptide, reference compound]
Bcl-2 [1]; 0.5 mg/mL Bcl-2, 400 nM ligand
  Tagg of Bcl-2: 67.30 ± 1.02 °C
Bcl-2 [1]; 0.5 mg/mL Bcl-2, 400 nM ligand, listed as Bax-BH3
  Tagg of Bcl-2: 67 °C

## LSDAMETSSLRDALE [scrambled LD4 peptide, scrambled version of the Bcl-2 ligand LD4, negative control, reference compound]
Bcl-2 [1]; 0.5 mg/ml Bcl-2, 1 μM peptide (negative control)
  effect on Tagg of Bcl-2: did not alter Tagg

## CC(C)(COP(=O)(O)OP(=O)(O)OC[C@H]1O[C@@H](n2cnc3c(N)ncnc32)[C@H](O)[C@@H]1OP(=O)(O)O)[C@@H](O)C(=O)NCCC(=O)NCCS [Coenzyme A]
hPPARγ-LBD [2]; 35 μM ligand
  Tm of hPPARγ-LBD: 46.6 °C
hPPARγ-LBD [2]; 70 μM ligand
  Tm of hPPARγ-LBD: 46.5 °C
hPPARγ-LBD [2]; 140 μM ligand
  Tm of hPPARγ-LBD: 45.5 °C
hPPARγ-LBD [2]; 280 μM ligand
  Tm of hPPARγ-LBD: 41.7 °C
hPPARγ-LBD [2]; 1400 μM ligand
  Tm of hPPARγ-LBD: 27.5 °C
hPPARγ-LBD [2]; seven molar excess of ligand
  lowering of hPPARγ-LBD Tm compared to the apo-protein: 0.8 °C
Bcl-2 [1]; 0.5 mg/mL Bcl-2, 0.1 mM ligand
  Tagg of Bcl-2: 57.65 ± 0.19 °C
Bcl-2 [1]; 0.5 mg/mL Bcl-2, 0.25 mM ligand
  Tagg of Bcl-2: 59.72 ± 1.011 °C
Bcl-2 [1]; 0.5 mg/mL Bcl-2, 0.5 mM ligand
  Tagg of Bcl-2: 59.83 ± 0.21 °C
Bcl-2 [1]; 0.5 mg/mL Bcl-2, 0.75 mM ligand
  Tagg of Bcl-2: 60.49 ± 0.46 °C
Bcl-2 [1]; 0.5 mg/mL Bcl-2, 1 mM ligand
  Tagg of Bcl-2: 60.88 ± 0.46 °C
Bcl-2 [1]; 0.5 mg/mL Bcl-2, 1.5 mM ligand
  Tagg of Bcl-2: 61.12 ± 0.58 °C
Bcl-2 [1]; 0.5 mg/mL Bcl-2, 2 mM ligand
  Tagg of Bcl-2: 61.25 ± 0.66 °C
Bcl-2 [1]; 0.5 mg/mL Bcl-2, 3 mM ligand
  Tagg of Bcl-2: 61.78 ± 0.45 °C
Bcl-2 [1]; 0.5 mg/ml Bcl-2, increasing concentrations of CoA
  Tagg of Bcl-2 reached with increasing ligand concentrations: up to 62 °C
Bcl-2 [1]; DSLS thermal stability of Bcl-2, read-out: Kd from ΔTagg versus concentration, single binding site model
  Kd: 320 ± 130 µM
Bcl-2 [3]
  displacement of Bax-BH3 from Bcl-2 (fluorescence anisotropy/polarization): did not reduce the FA; also recorded: without displacing Bax-BH3; also recorded: unable to displace
Bcl-2 [4]; 10 μM Bcl-2, increasing CoA concentrations, read-out: Kd from tryptophan fluorescence quenching, single binding site model
  Kd: 380 µM
Bcl-2 [4]; summary value in discussion, read-out: Kd for recombinant Bcl-2 in vitro
  Kd: ~350 µM
hPPARγ-LBD [5]
  Kd: < 500 µM
hPPARγ-LBD [5]; inferred from effect on coactivator and corepressor binding
  nature of the ligand-hPPARγ-LBD interaction: neutral antagonist
hPPARγ-LBD [5]; two to ten molar excess
  effect on affinity of hPPARγ-LBD for corepressors NCoR and SMRT: lowered the affinity
hPPARγ-LBD [5]; two to ten molar excess (CD5577: two molar excess)
  effect on affinity of hPPARγ-LBD for the coactivator PGC1: lowered the affinity

B1: fluorescence-labeled peptide QDASTKKLSECLRRIGDELDSNMELQRMIAD corresponding to Bax-BH3 (peptide)
peptide: QDASTKKLSECLRRIGDELDSNMELQRMIAD
modifications: also: fluorescein label, position not given here
notes: Bought from Genscript; also called Bax-BH3 peptide
[6]
  Kd: 0.128 µM
[7]
  Tagg (° C.): 67.3 ° C.
[8]
  Kd: ~0.128 µM

B2: scrambled LD4 peptide (LSDAMETSSLRDALE, a scrambled version of the Bcl-2 ligand LD4) (peptide)
peptide: LSDAMETSSLRDALE
notes: Negative control peptide, bought from Genscript; also called Scramble LD4 peptide
[9]
  binding result: no binding (tested: 1 µM)
[10]
  Tagg (° C.): 57 ° C.
